Test results reported in article PMC8625740, “Triterpenoid Saponins from the Cultivar “Green Elf” of Pittosporum tenuifolium” (Molecules, 2021).

Target: T1, hTAS1R2 (TAS1R2/TAS1R3 sweet taste receptor) (Homo sapiens, UniProt Q8TE23)
T1 construct: with hTAS1R3 (TAS1R3)
T1 sequence (Q8TE23 20-839): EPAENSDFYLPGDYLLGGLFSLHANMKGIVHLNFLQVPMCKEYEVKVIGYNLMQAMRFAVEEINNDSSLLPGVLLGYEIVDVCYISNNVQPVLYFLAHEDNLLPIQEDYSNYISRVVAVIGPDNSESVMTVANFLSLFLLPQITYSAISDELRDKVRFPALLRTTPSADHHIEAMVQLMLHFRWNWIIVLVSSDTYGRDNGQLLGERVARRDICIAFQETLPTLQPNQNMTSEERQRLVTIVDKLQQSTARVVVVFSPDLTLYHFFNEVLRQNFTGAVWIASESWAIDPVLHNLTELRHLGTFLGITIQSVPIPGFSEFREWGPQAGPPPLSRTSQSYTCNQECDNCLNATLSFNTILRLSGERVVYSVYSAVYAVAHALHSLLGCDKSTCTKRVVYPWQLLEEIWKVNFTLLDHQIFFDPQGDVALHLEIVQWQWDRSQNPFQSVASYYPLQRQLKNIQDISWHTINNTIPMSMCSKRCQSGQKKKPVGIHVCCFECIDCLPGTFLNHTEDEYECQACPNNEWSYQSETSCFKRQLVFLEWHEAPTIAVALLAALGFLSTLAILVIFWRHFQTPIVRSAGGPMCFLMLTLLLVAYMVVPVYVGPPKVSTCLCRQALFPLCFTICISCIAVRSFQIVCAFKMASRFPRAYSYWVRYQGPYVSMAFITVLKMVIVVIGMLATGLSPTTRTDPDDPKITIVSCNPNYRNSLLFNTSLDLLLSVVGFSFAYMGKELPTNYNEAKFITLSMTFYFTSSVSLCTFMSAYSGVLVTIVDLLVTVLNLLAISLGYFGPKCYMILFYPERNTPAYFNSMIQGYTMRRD
T1 sequence (Q7RTX0 21-852 partner): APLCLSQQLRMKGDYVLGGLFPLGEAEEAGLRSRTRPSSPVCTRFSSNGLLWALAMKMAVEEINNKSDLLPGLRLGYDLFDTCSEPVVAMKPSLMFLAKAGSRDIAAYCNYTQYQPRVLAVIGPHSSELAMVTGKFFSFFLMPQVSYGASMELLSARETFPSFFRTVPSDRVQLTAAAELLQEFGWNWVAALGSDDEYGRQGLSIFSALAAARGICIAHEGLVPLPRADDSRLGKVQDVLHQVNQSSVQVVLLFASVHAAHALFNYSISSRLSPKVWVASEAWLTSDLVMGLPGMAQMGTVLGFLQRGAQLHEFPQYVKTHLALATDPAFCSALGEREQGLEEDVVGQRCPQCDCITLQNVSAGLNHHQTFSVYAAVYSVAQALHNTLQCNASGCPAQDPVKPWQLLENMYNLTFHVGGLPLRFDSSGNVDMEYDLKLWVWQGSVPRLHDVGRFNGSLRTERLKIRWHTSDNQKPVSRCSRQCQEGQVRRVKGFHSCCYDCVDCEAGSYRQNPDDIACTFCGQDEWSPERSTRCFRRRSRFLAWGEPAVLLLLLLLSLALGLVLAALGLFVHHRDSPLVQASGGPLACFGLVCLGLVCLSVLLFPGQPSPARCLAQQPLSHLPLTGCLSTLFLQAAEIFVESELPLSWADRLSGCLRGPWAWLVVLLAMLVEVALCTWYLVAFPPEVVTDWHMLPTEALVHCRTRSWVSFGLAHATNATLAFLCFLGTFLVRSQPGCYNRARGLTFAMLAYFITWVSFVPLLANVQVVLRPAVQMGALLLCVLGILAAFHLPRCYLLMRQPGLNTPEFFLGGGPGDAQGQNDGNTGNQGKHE
Test: calcium mobilization (GCaMP5G, FLIPR) in HEK293T-Gα[…]gust44 cells transfected with hTAS1R2 and hTAS1R3, mock-subtracted
Assay type: cell-based

OC[C@H]1O[C@H](O[C@]2(CCl)O[C@H](CCl)[C@@H](O)[C@@H]2O)[C@H](O)[C@@H](O)[C@H]1Cl [sucralose]
EC50: 52 ± 7 µM
